# Patent publication US4374857A, “Method of inhibiting L-tryptophan to serum albumin binding” (Her Majesty the Queen in right of Canada, as represented by …, priority 1982, dated 1983)
# “Also recorded” adds a separate entry of the source.
# Molecular target: T1, human serum albumin (Homo sapiens, UniProt P02768)
# T1 construct: purchased Sigma, St. Louis, MO
# Assay: Equilibrium dialysis of 14C-L-TRP binding to human serum albumin in presence of ligands (Scatchard plots)
# Details: for effect on L-TRP binding to albumin: one molar equivalent of ligand; for effect on L-TRP binding capacity of albumin: second and third molar equivalents of ligand; for reduction of the affinity (Ka) of L-TRP for albumin: two moles of ligand per mole albumin, equilibrium dialysis, 37° C., pH 7.4
# Description: Human serum albumin (Fraction V) was purchased from Sigma, St. Louis, MO. The protein was defatted with activated charcoal according to Chen, R. F. (1967), J. Biol. Chem 242: 173-181 and monomeric albumin purified as previously described in Soltys, B. J. and Hsia, J. C. (1977), J. Biol. Chem. 252: 4043-4048. Protein concentration was determined by absorption of ultraviolet light, assuming E279 nm^1% =5.30 according to Clark, P., Rachinsky, M. R. and Foster, J. F. (1962), J. Biol. Chem. 237: 2509-2513. The sodium salt of cis-parinaric acid was dissolved in 1×10^-4 Malbumin in Ringer's buffer. The Ringer's buffer contained 110 mM NaCl, 5 mM KCl, 1.2 mM MgSO4, 1.2 mM KH2 PO4 and 10 mM Na2 HPO4 at a pH of 7.4 at 37° C. L-tryptophan, stearate and bilirubin were also purchased from Sigma, St. Louis, MO. cis-parinaric acid was purchased from Molecular Probes Inc., Plano, TX. L-[side chain-3 -^14 C]-tryptophan (^14 C-L-TRP) was purchased from New England Nuclear, Boston, Mass. Fatty acids and bilirubin were dissolved in albumin solution essentially as previously described in Soltys, B. J. and Hsia, J. C. (1977), J. Viol. Chem. 252: 4043-4048. Briefly, fatty acid or bilirubin (sodium salt) in methanol was dried under vacuum in dim light to form a thin film in a small glass vial. The albumin solution was added to the vial and gently blended on a Vortex mixer until optically clear.
# Equilibrium dialysis cells (approximately 200 μl total capacity) with injection/sampling ports were used. Dialysis membranes (Canlab, Toronto, Ont), previously boiled in distilled water, were placed on one half-cell and then the two half-cells were bolted together. 100 ul of albumin (1×10^-4 M), or its ligand complex was added to one side of the dialysis cells, while 100 μl of a solution of ^14 C-L-TRP was added to the other side.
# The cells were sealed with tape and incubated with slight oscillation at 37±0.5° C. in a jacketed incubator (Model 3314, Forma Scientific, Marietta, OH). The cells contained total amount of L-TRP varying from 0.5 to 20 times the number of moles of albumin. After six hours incubation, 25 μl samples were drawn from the albumin side and the buffer side of each cell. These were counted in 6 ml plastic scintillation vials (Canlab) containing 5 ml Aquasol (New England Nuclear) in a liquid scintillation counter (LS 9000, Beckman, Irvine, CA). A quench curve was constructed to correct for quenching of counts by bilirubin.
# The equation for the Scatchard plot is
# where n is the number of binding sites and Ka is the apparent association constant. Thus the r-intercept is n and the r/c-intercept is nK (a measure of binding capacity), while the negative slope yields the Ka.
# T1 sequence (P02768 25-609): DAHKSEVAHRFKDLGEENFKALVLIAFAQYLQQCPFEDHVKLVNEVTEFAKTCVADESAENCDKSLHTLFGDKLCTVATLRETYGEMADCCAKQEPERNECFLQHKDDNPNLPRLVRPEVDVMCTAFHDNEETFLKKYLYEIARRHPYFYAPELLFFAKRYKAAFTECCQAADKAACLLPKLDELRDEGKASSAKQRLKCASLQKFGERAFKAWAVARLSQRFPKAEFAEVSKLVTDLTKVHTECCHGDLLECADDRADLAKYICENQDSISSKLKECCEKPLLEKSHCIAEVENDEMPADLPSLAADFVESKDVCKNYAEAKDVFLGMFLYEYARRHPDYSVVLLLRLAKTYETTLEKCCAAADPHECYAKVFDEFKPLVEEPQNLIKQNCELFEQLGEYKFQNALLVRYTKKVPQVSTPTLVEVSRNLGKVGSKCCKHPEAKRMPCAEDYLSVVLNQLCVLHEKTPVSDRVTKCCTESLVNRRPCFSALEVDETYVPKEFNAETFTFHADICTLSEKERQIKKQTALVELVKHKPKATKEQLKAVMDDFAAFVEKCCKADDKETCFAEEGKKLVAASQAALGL
number of primary binding sites on human serum albumin (Scatchard plot without competing ligand (FIG. 1)),effect on L-TRP binding capacity of albumin,displacement of albumin-bound tryptophan (2:1 ligand-to-albumin ratio),inhibitory effect on L-TRP binding capacity of albumin (higher molar ratios (2.0 to 4.0) of ligand),Structure (SMILES),effect on L-TRP binding to albumin,effect on specific (primary site) L-TRP binding capacity of albumin (4.0 moles of ligand per mole albumin),reduction of the affinity (Ka) of L-TRP for albumin [%]
one,–,–,–,"N[C@@H](Cc1c[nH]c2ccccc12)C(=O)O [L-TRP, L-tryptophan]",–,–,–
–,progressive inhibition,–,–,"C=CC1=C(C)/C(=C/c2[nH]c(Cc3[nH]c(/C=C4\NC(=O)C(C)=C4C=C)c(C)c3CCC(=O)O)c(CCC(=O)O)c2C)NC1=O [bilirubin, reference compound]",did not affect; also recorded: little effect,–,–
–,abolished,up to 90%,most effective,"CC\C=C/C=C/C=C/C=C\CCCCCCCC(=O)O [cis-parinaric acid, cis, trans, trans, cis-9,11,13,15-octadecatetraenoic acid]",strong inhibitory effect,completely blocked; also recorded: completely abolished,80
–,–,–,–,"CCCCCCCCCCCCCCCCCC(=O)O [stearate, reference compound]",–,–,20
